# Target: T1, m-Calpin (Rattus norvegicus, UniProt Q07009)
# T1 construct: m-Calpin was purified from brains of rats; from tissue; host or cells: rat brain
# T1 sequence (Q07009 1-700): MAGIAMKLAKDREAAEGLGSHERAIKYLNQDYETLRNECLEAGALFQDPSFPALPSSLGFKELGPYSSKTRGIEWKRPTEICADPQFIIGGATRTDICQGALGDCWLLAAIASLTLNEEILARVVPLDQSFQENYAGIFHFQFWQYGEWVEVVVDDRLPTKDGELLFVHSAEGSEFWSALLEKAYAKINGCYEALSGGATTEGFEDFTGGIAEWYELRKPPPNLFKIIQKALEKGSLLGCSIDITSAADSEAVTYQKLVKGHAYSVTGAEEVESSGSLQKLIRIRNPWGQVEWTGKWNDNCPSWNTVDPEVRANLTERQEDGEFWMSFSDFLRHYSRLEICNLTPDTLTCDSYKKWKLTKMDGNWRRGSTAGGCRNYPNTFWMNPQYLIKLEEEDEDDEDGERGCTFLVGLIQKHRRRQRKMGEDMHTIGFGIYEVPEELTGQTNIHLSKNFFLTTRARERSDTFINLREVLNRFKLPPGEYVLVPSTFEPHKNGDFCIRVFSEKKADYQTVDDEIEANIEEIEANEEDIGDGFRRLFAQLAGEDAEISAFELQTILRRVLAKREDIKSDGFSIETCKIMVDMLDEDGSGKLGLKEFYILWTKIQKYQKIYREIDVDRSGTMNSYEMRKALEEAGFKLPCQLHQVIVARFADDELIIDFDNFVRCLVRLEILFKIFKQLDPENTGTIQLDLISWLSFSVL
# T1 sequence (Q64537 1-270 partner): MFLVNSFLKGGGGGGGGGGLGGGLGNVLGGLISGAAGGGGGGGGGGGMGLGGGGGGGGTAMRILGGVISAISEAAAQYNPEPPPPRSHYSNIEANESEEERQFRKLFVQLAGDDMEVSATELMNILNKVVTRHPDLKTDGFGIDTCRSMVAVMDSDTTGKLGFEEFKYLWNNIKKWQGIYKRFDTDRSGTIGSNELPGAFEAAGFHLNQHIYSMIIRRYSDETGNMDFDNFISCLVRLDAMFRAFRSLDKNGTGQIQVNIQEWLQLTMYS
# Assay: Measurement of calpain inhibitory activity
# Assay type: biochemical
# Conditions: m-calpain purified from brains of rats
# Procedure: Measurement of calpain inhibitory activity
# For comparison, inhibitory activity of leupeptin (N-terminus is in the form of amide) and calpeptin (N-terminus is in the form of carbamate) was also measured.
row,Compound,IC50
1,CCCC[C@@H](C=O)NC(=O)[C@H](CC(C)C)NC(=O)OCc1ccccc1 [Calpeptin],46 nM
2,"CC(C)C[C@H](NS(=O)(=O)c1ccccc1)C(=O)N[C@H](C=O)C(C)C [Example 1, N-phenylsulfonyl-L-leucyl-L-valinal]",11 nM
3,"CC(C)C[C@H](NS(=O)(=O)c1cccnc1)C(=O)N[C@H](C=O)C(C)C [Example 2, N-3-pyridylsulfonyl-L-leucyl-L-valinal]",6.5 nM
4,CC(=O)N[C@@H](CC(C)C)C(=O)N[C@@H](CC(C)C)C(=O)N[C@H](C=O)CCCNC(=N)N [Leupeptin],360 nM

# — patent publication US5506243A, “Sulfonamide derivatives” (Mitsubishi Kasei Corporation, priority 1993, dated 1996)
